Results reported in PubChem BioAssay AID2060886 (Molecular Pharmacology Branch, DTP, NCI, 2025).

Tested on: 653999-131-R-J2-PDC complex spheroids, growth inhibition
Experiment: Anticancer human tumor 653999-131-R-J2-PDC patient-derived lung adenocarcinoma cell line growth inhibition [RAS]
Details: for IC50: curve of first compound; for viability, T/C: stronger effect = lower value
Excerpt: RAS pathway inhibitors in Combinations in Complex Spheroids
A high-throughput screen of multi-cell type tumor spheroids was designed to identify active combinations of RAS pathway inhibitors and targeted small molecules. Complex spheroids include a stromal component modeled by human endothelial cells (HUVEC) and fibroblasts modeled by human mesenchymal stem cells (MSCs). The concentration ranges selected for each drug and investigational agent were based upon clinically achievable concentrations if the clinical Cmax of the agent was known.
Compounds. The drugs and investigational agents: abemaciclib (NSC768073), cobimetinib (NSC768068), divarasib (GDC6063, NSC841802), docetaxel (NSC628503), GDC-1971 (RLY-1971, NSC841576), gemcitabine (NSC613327), inavolisib (NSC800729), ipatasertib (NSC767898), KB-0742 (NSC834161), MRTX-1133 (NSC836407), osimertinib (NSC779217), RMC-4630 (NSC839698), RMC-6236 (NSC851965), RMC-6291 (NSC852671), Ro-3306 (NSC812927), sapanisertib (NSC764658), SN-38 (NSC673596), staurosporine (NSC755774), SY5609 (NSC837396), and tovorafenib (DAY101, NSC766906), were obtained from the National Cancer Institute (NCI) Developmental Therapeutics Program Chemical Repository. The FDA-approved anticancer drug set is available from the NCI Developmental Therapeutics Program. […] The stock solutions were prepared in dimethyl sulfoxide (DMSO, Sigma-Aldrich, St. Louis, MO, cat. D2650) at 800-fold the tested concentration and stored at -70 degrees C prior to their use. All drugs and investigational agents were tested over a range starting from a high concentration at or near the clinical Cmax and decreasing in half-log increments. If the clinical Cmax for an agent had not been determined, the highest concentration tested was 10 microM.
Cell Culture. All cells were maintained in an incubator at 37 degrees C and 5% CO2 with 95% humidity. The PDC lines were cultured according to standard operating procedures established by the NCI PDMR. All PDCs were thawed and cultured in Matrigel-coated flasks prepared with a working solution of 1X Ham's F-12 nutrient mix, without supplementation (Invitrogen, Waltham, MA, cat. 11765054), 100 U/mL penicillin-streptomycin (Invitrogen, cat. 15140122), and 2.5% Matrigel (Corning Inc., Corning, NY, cat. 354248) for the first three passages. The 362531-283-R-J2-PDC and 782815-120-R-J1-PDC lines were cultured in 6C/Colon 1B media, which includes advanced DMEM/F-12 (Thermo Fisher Scientific, cat. 12634028), 10 mM HEPES (Thermo Fisher Scientific, cat. 15630080), 1X GlutaMAX supplement (Thermo Fisher Scientific, cat. 35050061), 0.1 mg/mL primocin (InvivoGen, San Diego, CA, cat. ant-pm-2), 10% defined fetal bovine serum, heat inactivated (HyClone Laboratories Inc., Logan, UT, cat. SH30070.03HI), 50% L-WRN conditioned media (ATCC, cat. CRL-3276), 1.25 mM N-Acetyl-L-cysteine (Sigma-Aldrich, cat. A9165), 10 mM nicotinamide (Sigma-Aldrich, cat. N0636), 1X B-27 supplement (Thermo Fisher Scientific, cat. 17504044), 1X N-2 supplement (Thermo Fisher Scientific, cat. 17502048), 50 ng/mL human EGF (Thermo Fisher Scientific, cat. PHG0311), and 10 microM Y-27632 dihydrochloride (Tocris Bioscience, cat. 1254). The K12877-001-R-J1-PDC line was cultured in 6I media, which includes all 6C/Colon 1B media plus 10 ng/mL human FGF-10 (PeproTech, cat. 100-26), 1 ng/mL human FGF-2 (PeproTech, cat. 100-18B), 1 µM prostaglandin E2 (Tocris Bioscience, cat. 2296), […] hydrocortisone (Sigma-Aldrich, cat. H4001), and […] bovine insulin (Sigma-Aldrich, cat. I6634). The K86415-001-R-J1-PDC line was cultured in 6D media, which includes all 6C/Colon 1B media components minus the L-WRN conditioned media. The 485176-168-R4-J1-PDC was cultured in PANC media, which includes all 6C/Colon 1B media plus 100 ng/mL human FGF-10 (PeproTech, cat. 100-26), 500 nM SB-431542 (Selleckchem, cat. S1067), and 10 nM gastrin (Tocris Bioscience, cat. 3006). […]

[1] = second compound 0.000949 µM, first compound 0.00316 µM
[2] = second compound 0.000949 µM, first compound 0.01 µM
[3] = second compound 0.000949 µM, first compound 0.0316 µM
[4] = second compound 0.000949 µM, first compound 0.1 µM
[5] = second compound 0.003 µM, first compound 0.00316 µM
[6] = second compound 0.003 µM, first compound 0.01 µM
[7] = second compound 0.003 µM, first compound 0.0316 µM
[8] = second compound 0.003 µM, first compound 0.1 µM
[9] = second compound 0.00949 µM, first compound 0.00316 µM
[10] = second compound 0.00949 µM, first compound 0.01 µM
[11] = second compound 0.00949 µM, first compound 0.0316 µM
[12] = second compound 0.00949 µM, first compound 0.1 µM
[13] = second compound 0.03 µM, first compound 0.00316 µM
[14] = second compound 0.03 µM, first compound 0.01 µM
[15] = second compound 0.03 µM, first compound 0.0316 µM
[16] = second compound 0.03 µM, first compound 0.1 µM
[17] = second compound 0.0949 µM, first compound 0.00316 µM
[18] = second compound 0.0949 µM, first compound 0.01 µM
[19] = second compound 0.0949 µM, first compound 0.0316 µM
[20] = second compound 0.0949 µM, first compound 0.1 µM
[21] = second compound 0.3 µM, first compound 0.00316 µM
[22] = second compound 0.3 µM, first compound 0.01 µM
[23] = second compound 0.3 µM, first compound 0.0316 µM
[24] = second compound 0.3 µM, first compound 0.1 µM
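Further: spheroids exposed to the agents for seven days before the readout.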

## CCN1CCN(Cc2ccc(Nc3ncc(F)c(-c4cc(F)c5nc(C)n(C(C)C)c5c4)n3)nc2)CC1 + CCn1c(-c2cccnc2C(C)OC)c2c3cc(ccc31)N1CCOC(CC(NC(=O)C(C(C)C)N(C)C(=O)C3(F)CCN(C(=O)C#CC(C)(C)N(C)C)CC3)C(=O)N3CCCC(N3)C(=O)OCC(C)(C)C2)C1
Second compound 0.000949 µM
  IC50: > 1000 nM
Second compound 0.003 µM
  IC50: > 1000 nM
Second compound 0.00949 µM
  IC50: > 1000 nM
Second compound 0.03 µM
  IC50: > 1000 nM
Second compound 0.0949 µM
  IC50: > 1000 nM
Second compound 0.3 µM
  IC50: > 1000 nM
[1]
  viability, T/C: 101%
[2]
  viability, T/C: 87.8%
[3]
  viability, T/C: 75.3%
[4]
  viability, T/C: 67.6%
Second compound 0.000949 µM, first compound 0.316 µM
  viability, T/C: 73.2%
Second compound 0.000949 µM, first compound 1 µM
  viability, T/C: 78.4%
[5]
  viability, T/C: 98.5%
[6]
  viability, T/C: 76.9%
[7]
  viability, T/C: 75.5%
[8]
  viability, T/C: 75%
Second compound 0.003 µM, first compound 0.316 µM
  viability, T/C: 71.8%
Second compound 0.003 µM, first compound 1 µM
  viability, T/C: 92.9%
[9]
  viability, T/C: 105%
[10]
  viability, T/C: 99.5%
[11]
  viability, T/C: 64.8%
[12]
  viability, T/C: 77.6%
Second compound 0.00949 µM, first compound 0.316 µM
  viability, T/C: 80%
Second compound 0.00949 µM, first compound 1 µM
  viability, T/C: 82.2%
[13]
  viability, T/C: 95.1%
[14]
  viability, T/C: 75.7%
[15]
  viability, T/C: 79.2%
[16]
  viability, T/C: 64.2%
Second compound 0.03 µM, first compound 0.316 µM
  viability, T/C: 89.9%
Second compound 0.03 µM, first compound 1 µM
  viability, T/C: 79.1%
[17]
  viability, T/C: 90.9%
[18]
  viability, T/C: 85.6%
[19]
  viability, T/C: 79.5%
[20]
  viability, T/C: 69.3%
Second compound 0.0949 µM, first compound 0.316 µM
  viability, T/C: 83.7%
Second compound 0.0949 µM, first compound 1 µM
  viability, T/C: 81.3%
[21]
  viability, T/C: 95.4%
[22]
  viability, T/C: 81.6%
[23]
  viability, T/C: 73.7%
[24]
  viability, T/C: 60.8%
Second compound 0.3 µM, first compound 0.316 µM
  viability, T/C: 84.6%
Second compound 0.3 µM, first compound 1 µM
  viability, T/C: 77.6%

## CC(C)n1nc(-c2ccc3oc(N)nc3c2)c2c(N)ncnc21 + CCn1c(-c2cccnc2C(C)OC)c2c3cc(ccc31)N1CCOC(CC(NC(=O)C(C(C)C)N(C)C(=O)C3(F)CCN(C(=O)C#CC(C)(C)N(C)C)CC3)C(=O)N3CCCC(N3)C(=O)OCC(C)(C)C2)C1
Second compound 0.000949 µM
  IC50: 21.8 nM
Second compound 0.003 µM
  IC50: 20.1 nM
Second compound 0.00949 µM
  IC50: 20.1 nM
Second compound 0.03 µM
  IC50: 22.1 nM
Second compound 0.0949 µM
  IC50: 24.6 nM
Second compound 0.3 µM
  IC50: 17.7 nM
Second compound 0.000949 µM, first compound 0.000316 µM
  viability, T/C: 85.9%
Second compound 0.000949 µM, first compound 0.001 µM
  viability, T/C: 95.4%
[1]
  viability, T/C: 82.9%
[2]
  viability, T/C: 66%
[3]
  viability, T/C: 42.9%
[4]
  viability, T/C: 28.4%
Second compound 0.003 µM, first compound 0.000316 µM
  viability, T/C: 95.8%
Second compound 0.003 µM, first compound 0.001 µM
  viability, T/C: 104%
[5]
  viability, T/C: 87.3%
[6]
  viability, T/C: 62.7%
[7]
  viability, T/C: 42.9%
[8]
  viability, T/C: 34%
Second compound 0.00949 µM, first compound 0.000316 µM
  viability, T/C: 107%
Second compound 0.00949 µM, first compound 0.001 µM
  viability, T/C: 98.8%
[9]
  viability, T/C: 94.5%
[10]
  viability, T/C: 63.9%
[11]
  viability, T/C: 41.1%
[12]
  viability, T/C: 32.9%
Second compound 0.03 µM, first compound 0.000316 µM
  viability, T/C: 100%
Second compound 0.03 µM, first compound 0.001 µM
  viability, T/C: 93.8%
[13]
  viability, T/C: 76.9%
[14]
  viability, T/C: 59.3%
[15]
  viability, T/C: 47.4%
[16]
  viability, T/C: 29.1%
Second compound 0.0949 µM, first compound 0.000316 µM
  viability, T/C: 97.7%
Second compound 0.0949 µM, first compound 0.001 µM
  viability, T/C: 95.8%
[17]
  viability, T/C: 79.4%
[18]
  viability, T/C: 68.1%
[19]
  viability, T/C: 44%
[20]
  viability, T/C: 31.8%
Second compound 0.3 µM, first compound 0.000316 µM
  viability, T/C: 92.4%
Second compound 0.3 µM, first compound 0.001 µM
  viability, T/C: 93.8%
[21]
  viability, T/C: 81.7%
[22]
  viability, T/C: 54.6%
[23]
  viability, T/C: 45.4%
[24]
  viability, T/C: 44.9%
